Like-named read-outs stand apart in the source and are kept apart here.
Experiments:
PD features = conditions: double blind clinical studies; cited from earlier work
Single ascending dose = format: in vivo, human; conditions: for dose linearity of single dose PK: Cmax and AUC0 - inf; for AUC0 - ∞/D / Cmax/D / tlag: fed, older healthy adults N = 6, mean (SD)
[1] = 7-day multiple ascending dose; format: in vivo, human; conditions: for accumulation of exposures at steady-state: once daily 7 days; for AUC0 - ∞/D / Cmax/D: HV N = 6, mean (SD)
[2] = 7-day MAD plasma pharmacokinetics, participants with PD; format: in vivo; conditions: human, oral
[3] = format: in vivo, human; conditions: for concentration at 6 days: human, cerebrospinal fluid, oral
[4] = tested on: older healthy adults or participants with PD; assay: Safety and tolerability; format: in vivo, human
[5] = tested on: participants with mild-to-moderate PD; assay: Functional assessments of motor and non-motor features of PD; format: in vivo, human; conditions: baseline to Day 7
c-Abl activation = conditions: once-daily oral administration; cited from earlier work
[6] = tested on: rodent and non-human primates; conditions: daily dosing between 13 and 39 weeks duration; cited from earlier work
[7] = tested on: models of inherited or sporadic Parkinson’s-like disease; conditions: once daily oral administration; cited from earlier work
[8] = SAD 12.5 mg single oral dose, plasma
[9] = SAD 25.0 mg single oral dose, plasma
[10] = SAD 37.5 mg single oral dose, plasma
[11] = SAD 75.0 mg single oral dose, plasma
[12] = SAD 100 mg single oral dose, plasma
[13] = SAD 125 mg single oral dose, plasma
[14] = SAD 175 mg single oral dose, plasma
[15] = SAD 250 mg single oral dose, plasma
[16] = SAD 325 mg single oral dose, plasma
[17] = DAY 1 of 7-day dosing, 12.5 mg once daily, plasma
[18] = DAY 1 of 7-day dosing, 25.0 mg once daily, plasma
[19] = DAY 1 of 7-day dosing, 200 mg once daily, plasma
[20] = DAY 7 of 7-day dosing, 25.0 mg once daily, plasma
[21] = DAY 7 of 7-day dosing, 200.0 mg once daily, plasma

Compound: Cc1cn(-c2cc(NC(=O)c3ccc(C)c(Nc4nccc(-c5cccnc5)n4)c3)cc(C(F)(F)F)c2)cn1 [nilotinib]
- improvement of PD features (PD features): failure

Compound: Cc1ccc(NC(=O)c2ccc(CN3CCN(C)CC3)cc2)cc1Nc1nccc(-c2cncc(-c3oncc3C)c2)n1 [Risvodetinib]
- dose linearity of single dose PK (Single ascending dose): approximately linear between 12.5 mg and 175 mg
- dose linearity of single dose PK (Single ascending dose; listed as risvodetinib (IkT-148009)): approximately linear between 12.5 mg and 200 mg
- AUC0 - ∞/D (Single ascending dose; [8]): 758 (345) h*ng/mL/mg
- Cmax/D (Single ascending dose; [8]): 35.8 (26.6) ng/mL/mg
- tlag (Single ascending dose; [8]): 1.09 (1.48) h
- AUC0 - ∞/D (Single ascending dose; [9]): 936 (314) h*ng/mL/mg
- Cmax/D (Single ascending dose; [9]): 37.8 (13.9) ng/mL/mg
- tlag (Single ascending dose; [9]): 0.614 (0.367) h
- AUC0 - ∞/D (Single ascending dose; [10]): 823 (776) h*ng/mL/mg
- Cmax/D (Single ascending dose; [10]): 36.0 (21.2) ng/mL/mg
- tlag (Single ascending dose; [10]): 0.642 (0.393) h
- AUC0 - ∞/D (Single ascending dose; [11]): 802 (342) h*ng/mL/mg
- Cmax/D (Single ascending dose; [11]): 36.6 (13.6) ng/mL/mg
- tlag (Single ascending dose; [11]): 0.342 (0.143) h
- AUC0 - ∞/D (Single ascending dose; [12]): 1150 (285) h*ng/mL/mg
- Cmax/D (Single ascending dose; [12]): 53.2 (12.8) ng/mL/mg
- tlag (Single ascending dose; [12]): 0.414 (0.350) h
- AUC0 - ∞/D (Single ascending dose; [13]): 879 (370) h*ng/mL/mg
- Cmax/D (Single ascending dose; [13]): 42.3 (10.1) ng/mL/mg
- tlag (Single ascending dose; [13]): 0.306 (0.284) h
- AUC0 - ∞/D (Single ascending dose; [14]): 982 (359) h*ng/mL/mg
- Cmax/D (Single ascending dose; [14]): 35.0 (13.7) ng/mL/mg
- tlag (Single ascending dose; [14]): 0.0944 (0.146) h
- AUC0 - ∞/D (Single ascending dose; [15]): 858 (417) h*ng/mL/mg
- Cmax/D (Single ascending dose; [15]): 28.9 (6.55) ng/mL/mg
- tlag (Single ascending dose; [15]): 0.547 (0.507) h
- AUC0 - ∞/D (Single ascending dose; [16]): 749 (385) h*ng/mL/mg
- Cmax/D (Single ascending dose; [16]): 22.5 (9.71) ng/mL/mg
- tlag (Single ascending dose; [16]): 0.186 (0.250) h
- half-life (Single ascending dose; human, plasma, oral): 24 to 39 h
- accumulation of exposures at steady-state ([1]; 100 mg or 200 mg, Day 7 comparable to Day 1): little or no accumulation
- AUC0 - ∞/D [1, 17]: 706 (424) h*ng/mL/mg
- Cmax/D [1, 17]: 43.0 (23.1) ng/mL/mg
- AUC0 - ∞/D [1, 18]: 780 (305) h*ng/mL/mg
- Cmax/D [1, 18]: 41.5 (22.3) ng/mL/mg
- AUC0 - ∞/D [1, 19]: 759 (263) h*ng/mL/mg
- Cmax/D [1, 19]: 32.5 (6.4) ng/mL/mg
- AUC0 - ∞/D [1, 20]: 1020 (370) h*ng/mL/mg
- Cmax/D [1, 20]: 70.9 (32.3) ng/mL/mg
- AUC0 - ∞/D [1, 21]: 486 (116) h*ng/mL/mg
- Cmax/D [1, 21]: 29.8 (5.6) ng/mL/mg
- time to steady-state ([1]; doses > 50 mg once daily (higher doses)): within one day
- accumulation of exposures at steady-state ([1]; doses less than or equal to 50 mg): approximately two-fold
- time to steady-state ([1]; doses ≤50 mg once daily): ≤ 5 days
- AUC(0-inf) ([1]; human, plasma, oral, 12.5 mg): 8830 ng·h/mL
- AUC(0-inf) ([1]; human, plasma, oral, 25 mg): 19500 ng·h/mL
- AUC(0-inf) ([1]; human, plasma, oral, 200 mg): 152000 ng·h/mL
- half-life ([1]; human, plasma, oral, half-life, overall statement in discussion): ~24 h
- AUC(0-inf) ([2]; 50 mg): 24500 ng·h/mL
- AUC(0-inf) ([2]; 100 mg): 68700 ng·h/mL
- concentration at 6 days ([3]; 25 mg): 4.51 ng/mL
- concentration at 6 days ([3]; 50 mg): 3.07 ng/mL
- concentration at 6 days ([3]; 100 mg): 8.42 ng/mL
- detection in cerebrospinal fluid ([3]; pre-dose on the last dosing day of a 7-day dosing study, older healthy adults and PD participants): detected
- Severity of treatment-related adverse event: Dermatitis ([4]; 50 mg, 7-day, 1x/day, PD patients): Mild
- Severity of treatment-related adverse event: Palpitations ([4]; 75 mg, Single Dose, healthy subjects): Mild
- Severity of treatment-related adverse event: Constipation ([4]; 100 mg, 7-day, 1x/day, PD patients): Mild
- Severity of treatment-related adverse event: Elevated Lipase ([4]; 200 mg, 7-day, 1x/day, healthy subjects): Mild
- Severity of treatment-related adverse event: Diarrhea ([4]; 325 mg, Single Dose, healthy subjects): Mild
- deaths and serious adverse events ([4]; 94 healthy subjects and 14 participants with PD): no deaths, no serious adverse events
- adverse events deemed possibly or probably related to the active drug ([4]; among all 36 recorded adverse events, SAD, MAD and MAD-PD, all mild): 11
- QTcF prolongation ([4]; any dose or dose duration): No participants displayed evidence of QTcF prolongation
- orthostatic hypotension, heart rate, heart rhythm, blood pressure ([4]; participants with PD): did not exacerbate pre-existing orthostatic hypotension
- increase of mean score for MDS-UPDRS Part III ([5]; 50 mg once daily 7 days): 6.2 (±9.50) points
- increase of mean score for MDS-UPDRS Part III ([5]; 100 mg once daily 7 days): 7.4 (±14.1) points
- effect in the MPTP acute toxicity model (c-Abl activation): blocked disease initiation and progression
- histopathology in the pancreas [6]: no histopathology in the pancreas was observed
- effect in models of inherited or sporadic Parkinson’s-like disease [7]: therapeutically effective
